From ChEMBL document CHEMBL3217474, “The structure based design of dual HDAC/BET inhibitors as novel epigenetic probes” (Medchemcomm, 2014)
Values after ≈ are worked out from the molar mass of the structure shown. Active and inactive are the calls of the source. No cut-off for these calls is given here.

What was measured:
[1] = target: T1, Histone deacetylase 1 (Homo sapiens, UniProt Q13547)
Description: Inhibition of HDAC1 (unknown origin)

[2] = target: T2, Bromodomain-containing protein 4 (Homo sapiens, UniProt O60885); assay: Inhibition of recombinant BRD4 bromodomain 1 (unknown origin) using histone H4 peptide as substrate incubated for 1 hr under dark condition by HTRF assay
[3] = target: Histone deacetylase 9 (Homo sapiens, UniProt Q9UKV0)
Description: Inhibition of HDAC9 (unknown origin)

[4] = Solubility of the compound by chemiluminescent nitrogen detection method; format: physicochemical
[5] = Permeability of the compound in artificial membrane; format: physicochemical, cell membranes; settings: PAMPA; read-out: permeability
[6] = target: T3, Protein deacetylase HDAC6 (Homo sapiens, UniProt Q9UBN7)
T3 sequence (Q9UBN7 whole entry): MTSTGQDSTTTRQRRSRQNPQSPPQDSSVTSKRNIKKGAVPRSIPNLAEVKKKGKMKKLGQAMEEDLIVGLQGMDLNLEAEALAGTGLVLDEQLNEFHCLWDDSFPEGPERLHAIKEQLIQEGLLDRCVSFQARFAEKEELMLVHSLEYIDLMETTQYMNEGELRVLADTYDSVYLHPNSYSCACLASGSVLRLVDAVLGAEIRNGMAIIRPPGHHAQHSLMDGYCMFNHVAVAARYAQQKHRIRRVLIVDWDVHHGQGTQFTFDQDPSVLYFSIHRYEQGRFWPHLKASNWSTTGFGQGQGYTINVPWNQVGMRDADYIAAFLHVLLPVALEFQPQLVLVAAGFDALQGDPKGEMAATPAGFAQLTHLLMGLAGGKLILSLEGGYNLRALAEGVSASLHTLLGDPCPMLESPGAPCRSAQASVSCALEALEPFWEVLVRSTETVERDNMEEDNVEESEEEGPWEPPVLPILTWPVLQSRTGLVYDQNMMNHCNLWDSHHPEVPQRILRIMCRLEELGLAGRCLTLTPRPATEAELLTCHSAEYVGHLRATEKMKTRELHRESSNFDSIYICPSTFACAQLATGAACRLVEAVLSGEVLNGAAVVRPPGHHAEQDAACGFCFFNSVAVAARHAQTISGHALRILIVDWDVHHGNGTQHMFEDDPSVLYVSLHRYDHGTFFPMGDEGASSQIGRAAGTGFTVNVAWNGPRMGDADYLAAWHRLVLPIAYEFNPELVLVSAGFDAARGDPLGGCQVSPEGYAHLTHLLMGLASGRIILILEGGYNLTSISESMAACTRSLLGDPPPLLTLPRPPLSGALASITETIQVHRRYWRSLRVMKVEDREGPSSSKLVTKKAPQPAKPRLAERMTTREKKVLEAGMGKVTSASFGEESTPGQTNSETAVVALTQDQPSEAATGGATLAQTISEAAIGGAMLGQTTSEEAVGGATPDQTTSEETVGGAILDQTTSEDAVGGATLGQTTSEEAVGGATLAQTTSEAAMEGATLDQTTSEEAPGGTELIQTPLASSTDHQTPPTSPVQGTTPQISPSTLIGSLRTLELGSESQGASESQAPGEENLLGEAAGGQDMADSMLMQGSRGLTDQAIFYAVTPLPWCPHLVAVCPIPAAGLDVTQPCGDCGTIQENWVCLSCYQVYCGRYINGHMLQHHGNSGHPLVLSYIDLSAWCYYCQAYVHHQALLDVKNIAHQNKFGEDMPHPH
Description: Inhibition of HDAC6 (unknown origin)

[7] = target: T4, Bromodomain-containing protein 3 (Homo sapiens, UniProt Q15059); assay: Binding affinity to BRD3 in human HL60 cell nuclear extracts assessed as inhibition of protein binding to N-I-BET functionalised sepharose beads at 10 uM after 1 hr by coomassie staining-based staining-based chemoproteomic profiling; settings: HL-60
Target sequence in this assay (Q15059 2-726 limits assumed): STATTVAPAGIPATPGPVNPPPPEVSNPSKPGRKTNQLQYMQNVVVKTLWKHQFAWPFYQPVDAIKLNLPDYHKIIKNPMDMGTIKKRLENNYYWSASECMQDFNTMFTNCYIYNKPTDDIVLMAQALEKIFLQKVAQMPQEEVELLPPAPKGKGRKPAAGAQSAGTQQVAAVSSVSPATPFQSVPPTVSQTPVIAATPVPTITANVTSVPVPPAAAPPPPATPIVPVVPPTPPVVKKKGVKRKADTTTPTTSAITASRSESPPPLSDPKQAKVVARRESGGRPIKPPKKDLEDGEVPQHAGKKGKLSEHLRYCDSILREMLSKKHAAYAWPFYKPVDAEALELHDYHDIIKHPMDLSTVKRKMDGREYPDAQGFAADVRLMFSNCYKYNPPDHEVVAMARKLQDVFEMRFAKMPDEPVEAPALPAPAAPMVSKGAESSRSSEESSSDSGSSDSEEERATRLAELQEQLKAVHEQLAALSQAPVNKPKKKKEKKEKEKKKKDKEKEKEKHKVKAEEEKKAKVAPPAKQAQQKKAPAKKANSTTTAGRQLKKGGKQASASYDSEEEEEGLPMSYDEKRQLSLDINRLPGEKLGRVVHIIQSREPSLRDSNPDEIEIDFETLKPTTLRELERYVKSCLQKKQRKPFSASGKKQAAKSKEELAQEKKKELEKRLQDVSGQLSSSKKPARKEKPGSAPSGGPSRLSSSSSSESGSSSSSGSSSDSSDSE

[8] = target: T2, Bromodomain-containing protein 4; assay: Binding affinity to BRD4 in human HL60 cell nuclear extracts assessed as inhibition of protein binding to N-I-BET functionalised sepharose beads at 10 uM after 1 hr by coomassie staining-based staining-based chemoproteomic profiling; settings: HL-60
[9] = target: T5, Bromodomain-containing protein 2 (Homo sapiens, UniProt P25440); assay: Binding affinity to BRD2 in human HL60 cell nuclear extracts assessed as inhibition of protein binding to N-I-BET functionalised sepharose beads at 10 uM after 1 hr by coomassie staining-based chemoproteomic profiling; settings: HL-60
Target sequence in this assay (P25440 whole entry, looked up): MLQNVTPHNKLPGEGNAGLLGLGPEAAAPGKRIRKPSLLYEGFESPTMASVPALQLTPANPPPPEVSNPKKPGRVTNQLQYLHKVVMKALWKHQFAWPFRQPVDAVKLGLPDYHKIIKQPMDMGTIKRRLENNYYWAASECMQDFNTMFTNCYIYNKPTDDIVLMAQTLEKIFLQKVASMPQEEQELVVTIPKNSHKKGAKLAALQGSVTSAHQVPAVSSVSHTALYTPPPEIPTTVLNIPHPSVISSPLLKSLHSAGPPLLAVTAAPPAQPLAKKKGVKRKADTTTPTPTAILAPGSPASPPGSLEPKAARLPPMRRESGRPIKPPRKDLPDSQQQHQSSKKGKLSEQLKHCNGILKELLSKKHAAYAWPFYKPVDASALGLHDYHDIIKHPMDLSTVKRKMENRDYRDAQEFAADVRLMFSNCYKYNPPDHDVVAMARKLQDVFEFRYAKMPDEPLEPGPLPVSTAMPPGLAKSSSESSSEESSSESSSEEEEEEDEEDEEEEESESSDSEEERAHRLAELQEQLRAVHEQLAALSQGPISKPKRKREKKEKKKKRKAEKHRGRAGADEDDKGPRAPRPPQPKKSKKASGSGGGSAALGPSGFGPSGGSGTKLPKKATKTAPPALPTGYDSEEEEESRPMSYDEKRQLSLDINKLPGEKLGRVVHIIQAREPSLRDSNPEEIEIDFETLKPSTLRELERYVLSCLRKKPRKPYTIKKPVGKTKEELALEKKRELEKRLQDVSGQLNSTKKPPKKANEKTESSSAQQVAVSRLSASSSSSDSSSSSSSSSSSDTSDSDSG

[10] = species: Homo sapiens; assay: Inhibition of BET in human 11060 cells assessed as downregulation of c-Myc expression level at IC90 after 6 to 24 hrs by Western blotting analysis; format: cell-based
[11] = target: T2, Bromodomain-containing protein 4; assay: Inhibition of His6-tagged BRD4 (1 to 477) (unknown origin) by surface plasmon resonance analysis
[12] = target: Histone deacetylase 2 (Homo sapiens, UniProt Q92769)
Description: Binding affinity to HDAC2 in human HL60 cell nuclear extracts assessed as inhibition of enzyme binding to N-SAHA functionalised sepharose beads after 1 hr by coomassie staining-based chemoproteomic competition binding assay

[13] = test system: HL-60; assay: cells; format: functional, cell-based; settings: Homo sapiens, HL-60, 72 h
Description: Growth inhibition of human HL60 cells assessed as ATP level after 72 hrs by CellTiterGlo assay

[14] = test system: PBMC; assay: Antiinflammatory activity in human PBMC assessed as inhibition of LPS-stimulated TNF-alpha production incubated for 30 mins prior to LPS-challenge measured after overnight incubation; format: functional, cell-based
[15] = target: T6, Histone deacetylase 8 (Homo sapiens, UniProt Q9BY41)
T6 sequence (Q9BY41 whole entry): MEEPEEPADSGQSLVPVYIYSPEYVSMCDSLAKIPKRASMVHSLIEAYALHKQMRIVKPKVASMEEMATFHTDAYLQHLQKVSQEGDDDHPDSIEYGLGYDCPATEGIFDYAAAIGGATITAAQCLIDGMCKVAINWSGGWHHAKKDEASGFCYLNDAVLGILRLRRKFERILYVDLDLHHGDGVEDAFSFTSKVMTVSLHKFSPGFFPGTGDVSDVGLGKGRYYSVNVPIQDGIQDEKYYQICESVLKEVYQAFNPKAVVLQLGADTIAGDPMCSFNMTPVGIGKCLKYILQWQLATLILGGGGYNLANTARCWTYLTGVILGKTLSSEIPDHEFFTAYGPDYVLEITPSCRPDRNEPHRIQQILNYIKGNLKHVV
Description: Binding affinity to HDAC8 in human HL60 cell nuclear extracts assessed as inhibition of enzyme binding to N-SAHA functionalised sepharose beads after 1 hr by coomassie staining-based chemoproteomic competition binding assay

[16] = target: T7, Polyamine deacetylase HDAC10 (Homo sapiens, UniProt Q969S8)
T7 sequence (Q969S8 whole entry): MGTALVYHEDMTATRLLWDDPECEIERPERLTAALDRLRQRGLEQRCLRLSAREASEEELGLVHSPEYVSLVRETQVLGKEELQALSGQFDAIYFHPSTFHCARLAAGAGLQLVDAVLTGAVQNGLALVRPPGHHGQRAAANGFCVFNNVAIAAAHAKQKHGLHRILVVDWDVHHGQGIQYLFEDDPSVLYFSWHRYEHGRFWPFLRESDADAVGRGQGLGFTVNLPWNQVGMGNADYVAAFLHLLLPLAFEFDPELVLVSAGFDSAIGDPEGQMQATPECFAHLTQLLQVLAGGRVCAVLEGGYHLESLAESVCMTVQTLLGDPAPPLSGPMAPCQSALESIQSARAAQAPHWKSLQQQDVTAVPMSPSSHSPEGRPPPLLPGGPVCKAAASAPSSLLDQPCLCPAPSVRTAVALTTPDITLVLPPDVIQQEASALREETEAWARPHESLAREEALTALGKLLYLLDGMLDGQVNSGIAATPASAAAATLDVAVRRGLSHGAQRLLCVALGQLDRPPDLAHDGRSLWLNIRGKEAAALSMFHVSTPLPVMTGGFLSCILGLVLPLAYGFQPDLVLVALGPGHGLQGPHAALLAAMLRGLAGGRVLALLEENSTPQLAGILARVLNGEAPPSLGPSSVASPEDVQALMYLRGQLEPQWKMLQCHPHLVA
Description: Binding affinity to HDAC10 in human HL60 cell nuclear extracts assessed as inhibition of enzyme binding to N-SAHA functionalised sepharose beads after 1 hr by coomassie staining-based chemoproteomic competition binding assay

[17] = target: T3, Protein deacetylase HDAC6; remark: listed apart in the source
Description: Binding affinity to HDAC6 in human HL60 cell nuclear extracts assessed as inhibition of enzyme binding to N-SAHA functionalised sepharose beads after 1 hr by coomassie staining-based chemoproteomic competition binding assay

[18] = target: T5, Bromodomain-containing protein 2; assay: Binding affinity to BRD2 in human HL60 cell nuclear extracts assessed as inhibition of protein binding to N-I-BET functionalised sepharose beads after 1 hr by coomassie staining-based chemoproteomic competition binding assay; set-up: species or system HL-60; settings: read-out: Kd(app)
Target sequence in this assay (P25440 whole entry): as the sequence (P25440 whole entry, looked up) above

[19] = target: T2, Bromodomain-containing protein 4; assay: Binding affinity to BRD4 in human HL60 cell nuclear extracts assessed as inhibition of protein binding to N-I-BET functionalised sepharose beads after 1 hr by coomassie staining-based staining-based chemoproteomic competition assay; set-up: species or system HL-60; settings: read-out: Kd(app)
[20] = target: T2, Bromodomain-containing protein 4; assay: Inhibition of BRD4 bromodomain 2 (338 to 437) (unknown origin) by surface plasmon resonance analysis
[21] = target: T4, Bromodomain-containing protein 3; assay: Binding affinity to BRD3 in human HL60 cell nuclear extracts assessed as inhibition of protein binding to N-I-BET functionalised sepharose beads after 1 hr by coomassie staining-based chemoproteomic competition binding assay; set-up: species or system HL-60; settings: read-out: Kd(app)
Target sequence in this assay (Q15059 whole entry): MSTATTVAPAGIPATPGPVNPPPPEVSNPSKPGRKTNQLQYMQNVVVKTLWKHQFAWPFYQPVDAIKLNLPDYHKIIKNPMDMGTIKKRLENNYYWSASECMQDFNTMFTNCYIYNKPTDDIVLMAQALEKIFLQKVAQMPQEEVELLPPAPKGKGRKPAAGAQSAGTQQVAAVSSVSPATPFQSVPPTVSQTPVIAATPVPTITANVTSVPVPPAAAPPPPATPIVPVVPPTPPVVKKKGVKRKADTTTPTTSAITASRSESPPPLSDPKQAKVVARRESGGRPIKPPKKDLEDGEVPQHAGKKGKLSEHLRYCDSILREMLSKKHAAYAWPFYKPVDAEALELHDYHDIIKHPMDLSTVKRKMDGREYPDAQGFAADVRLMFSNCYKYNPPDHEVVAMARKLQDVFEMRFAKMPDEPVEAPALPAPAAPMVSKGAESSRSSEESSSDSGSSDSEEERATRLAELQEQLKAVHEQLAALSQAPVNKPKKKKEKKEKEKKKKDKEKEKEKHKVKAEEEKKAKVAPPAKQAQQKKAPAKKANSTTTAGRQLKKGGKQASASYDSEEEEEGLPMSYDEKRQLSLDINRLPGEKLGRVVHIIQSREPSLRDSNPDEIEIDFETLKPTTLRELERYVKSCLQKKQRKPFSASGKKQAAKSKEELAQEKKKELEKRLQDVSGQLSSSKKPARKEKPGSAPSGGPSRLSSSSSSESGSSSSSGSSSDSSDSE

[22] = test system: MV4-11; assay: cells; format: functional, cell-based; settings: Homo sapiens, MV4-11, 72 h
Description: Growth inhibition of human MV4-11 cells assessed as ATP level after 72 hrs by CellTiterGlo assay

[23] = cells; format: functional; settings: Homo sapiens, 72 h
Description: Growth inhibition of human 11060 cells assessed as ATP level after 72 hrs by CellTiterGlo assay

[24] = target: T1, Histone deacetylase 1; remark: listed apart in the source
Description: Binding affinity to HDAC1 in human HL60 cell nuclear extracts assessed as inhibition of enzyme binding to N-SAHA functionalised sepharose beads after 1 hr by coomassie staining-based chemoproteomic competition binding assay

[25] = target: Histone deacetylase 3 (Homo sapiens, UniProt O15379)
Description: Binding affinity to HDAC3 in human HL60 cell nuclear extracts assessed as inhibition of enzyme binding to N-SAHA functionalised sepharose beads after 1 hr by coomassie staining-based chemoproteomic competition binding assay

[26] = test system: PBMC; assay: Antiinflammatory activity in human PBMC assessed as inhibition of LPS-stimulated IL-6 production incubated for 30 mins prior to LPS-challenge measured after overnight incubation; format: functional, cell-based

T1 sequence (Q13547 whole entry): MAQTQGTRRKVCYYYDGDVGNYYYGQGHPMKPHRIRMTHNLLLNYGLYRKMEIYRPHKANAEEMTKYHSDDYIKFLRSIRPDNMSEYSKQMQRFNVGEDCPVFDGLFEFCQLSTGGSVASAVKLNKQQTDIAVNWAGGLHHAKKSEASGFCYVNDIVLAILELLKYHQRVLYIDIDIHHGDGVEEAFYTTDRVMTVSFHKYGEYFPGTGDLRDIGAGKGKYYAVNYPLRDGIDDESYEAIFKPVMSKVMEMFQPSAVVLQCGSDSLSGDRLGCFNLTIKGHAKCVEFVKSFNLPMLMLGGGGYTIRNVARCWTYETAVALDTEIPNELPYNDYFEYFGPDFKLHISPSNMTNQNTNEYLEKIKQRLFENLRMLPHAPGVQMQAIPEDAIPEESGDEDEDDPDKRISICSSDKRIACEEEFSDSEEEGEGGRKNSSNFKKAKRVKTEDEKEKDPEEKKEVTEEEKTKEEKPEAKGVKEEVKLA
Chain of Histone deacetylase 9 (Q9UKV0 whole entry): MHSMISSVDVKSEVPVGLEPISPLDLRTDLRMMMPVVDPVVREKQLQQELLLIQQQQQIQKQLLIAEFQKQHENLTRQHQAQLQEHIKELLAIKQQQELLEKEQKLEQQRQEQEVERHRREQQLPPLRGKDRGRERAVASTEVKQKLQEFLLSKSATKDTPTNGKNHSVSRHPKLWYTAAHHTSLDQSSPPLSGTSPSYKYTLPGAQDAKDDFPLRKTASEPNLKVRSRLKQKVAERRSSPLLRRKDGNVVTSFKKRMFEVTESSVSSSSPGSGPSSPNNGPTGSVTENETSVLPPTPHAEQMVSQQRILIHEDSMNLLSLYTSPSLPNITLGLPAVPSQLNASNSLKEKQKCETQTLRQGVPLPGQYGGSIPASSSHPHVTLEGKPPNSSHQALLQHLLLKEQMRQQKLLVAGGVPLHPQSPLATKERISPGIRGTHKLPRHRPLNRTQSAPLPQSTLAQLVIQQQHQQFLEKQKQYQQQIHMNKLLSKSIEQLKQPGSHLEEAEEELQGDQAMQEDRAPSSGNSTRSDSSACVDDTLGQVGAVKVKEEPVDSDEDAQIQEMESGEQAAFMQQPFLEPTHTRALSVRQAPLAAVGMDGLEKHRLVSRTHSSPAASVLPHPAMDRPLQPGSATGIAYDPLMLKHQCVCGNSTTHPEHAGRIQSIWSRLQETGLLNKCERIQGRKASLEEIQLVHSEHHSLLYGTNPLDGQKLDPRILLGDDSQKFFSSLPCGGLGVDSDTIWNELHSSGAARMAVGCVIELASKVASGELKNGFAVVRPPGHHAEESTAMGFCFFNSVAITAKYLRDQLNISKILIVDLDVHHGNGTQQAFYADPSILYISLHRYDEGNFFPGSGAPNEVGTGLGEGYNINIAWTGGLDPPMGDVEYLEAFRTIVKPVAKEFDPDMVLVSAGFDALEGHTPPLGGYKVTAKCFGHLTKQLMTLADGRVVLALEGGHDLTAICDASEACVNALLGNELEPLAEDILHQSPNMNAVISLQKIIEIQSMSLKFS
Chain of Histone deacetylase 3 (O15379 whole entry): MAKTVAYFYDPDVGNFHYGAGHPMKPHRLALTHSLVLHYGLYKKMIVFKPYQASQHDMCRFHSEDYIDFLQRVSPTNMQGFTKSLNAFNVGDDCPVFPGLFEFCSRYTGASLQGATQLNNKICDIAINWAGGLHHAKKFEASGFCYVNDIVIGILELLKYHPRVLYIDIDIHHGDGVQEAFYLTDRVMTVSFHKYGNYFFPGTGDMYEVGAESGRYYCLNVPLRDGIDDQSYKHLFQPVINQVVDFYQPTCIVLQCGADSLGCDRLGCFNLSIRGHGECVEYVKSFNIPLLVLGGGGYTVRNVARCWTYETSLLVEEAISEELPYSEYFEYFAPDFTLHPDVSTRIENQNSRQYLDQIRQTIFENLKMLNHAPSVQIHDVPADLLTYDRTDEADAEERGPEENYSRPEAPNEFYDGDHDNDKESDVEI

Compound | IC50 [1] [nM] | IC50 [2] [nM] | IC50 [3] [nM] | solubility ([4]; read-out: solubility) [µM] | Papp [5] [×10⁻⁶ cm/s] | IC50 [6] [nM] | inhibition [7] | inhibition [8] | inhibition [9] | further results
CC(=O)N1c2ccc(NC(=O)CCCCCCC(=O)NO)cc2[C@H](Nc2ccccc2)C[C@@H]1C | 900 | 100 | 37700 | 31 (≈ 14.5 µg/mL) | 3.1 | 980 | – | – | – | –
O=C(CCCCCCC(=O)Nc1ccccc1)NO [VORINOSTAT] | – | > 50000 | – | – | 1.5 | – | – | – | – | solubility [4]: 307 µM (≈ 81.1 µg/mL)
CC(=O)N1c2ccc(-c3ccccc3)cc2[C@H](NC(=O)CCCCCCC(=O)NO)C[C@@H]1C | 50 | 360 | 930 | > 442 | 0.8 | 1290 | Active | Active | Active | –
CNCc1ccc(-c2ccc3c(c2)[C@H](NC(=O)OC(C)C)C[C@H](C)N3C(C)=O)cc1 | > 100000 | 280 | > 100000 | 357 (≈ 146 µg/mL) | 17.4 | – | Active | Active | Active | IC50 [13]: 381 nM; IC50 [14]: 1 nM; IC50 [22]: 191 nM; IC50 [23]: 306 nM; IC50 [26]: 5 nM

Now from value to compound, other results behind:

IC50 [1] [nM] | IC50 [2] [nM] | IC50 [3] [nM] | solubility ([4]; read-out: solubility) [µM] | Papp [5] [×10⁻⁶ cm/s] | IC50 [6] [nM] | inhibition [7] | inhibition [8] | inhibition [9] | Compound | further results
250 | 50 | 34900 | 154 (≈ 85.1 µg/mL) | < 0.3 | 420 | Active | Active | Active | CC(=O)N1c2ccc(-c3ccc(NC(=O)CCCCCCC(=O)NO)cc3)cc2[C@H](NC(=O)OC(C)C)C[C@@H]1C | inhibition [10]: Active; Kd [11]: 57 nM; Kd [12]: 955 nM; IC50 [13]: 764 nM; IC50 [14]: 50 nM; Kd [15]: 328 nM; Kd [16]: 207 nM; Kd [17]: 236 nM; Kd [18]: 32 nM; Kd [19]: 112 nM; Kd [20]: 53 nM; Kd [21]: 70 nM; IC50 [22]: 334 nM; IC50 [23]: 832 nM; Kd [24]: 331 nM; Kd [25]: 424 nM; IC50 [26]: 219 nM
– | – | – | – | – | – | Active | Active | Active | CC(=O)N1c2ccc(NC(=O)CCCCCCC(=O)O)cc2[C@H](NC(=O)OC(C)C)C[C@@H]1C | –
250 | 290 | 61700 | > 182 | < 0.3 | 1740 | – | – | – | CC(=O)N1c2ccc(NC(=O)CCCCCCC(=O)NO)cc2[C@H](NC(=O)OC(C)C)C[C@@H]1C | –
